Assay results as given in patent publication US4395969A (priority 1981, dated 1983).

Legend:
[1] = tested on: Arctic grayling; experiment: Exploratory bioassay, Arctic grayling; type: in vivo, Thymallus arcticus; conditions: 10 μg/l; 48 h
Procedure: Cursory bioassays were made with small numbers of other fishes and a crayfish (Pacifasticus klamathensis) to check on the universal selectivity of the toxicants. The fishes included Arctic grayling (Thymallus arcticus), longnose sucker (C. catastomus), largescale sucker, (C. macrocheilus), and spotted sucker (Minytrema melanops).
Three longnose suckers (about 125 mm) and three Arctic grayling (about 125 mm) were exposed to 10 μg/l of 2, 2, 2, 1-tetrachloroethyl diethyl phosphate. The suckers died between 14 and 22 hours at 13 C. The grayling were not affected in 48-hour biassays.

[2] = tested on: chinook salmon; experiment: Deactivation with potassium permanganate, mortality of chinook salmon; type: in vivo, O. tschawytscha
[3] = tested on: brown bullhead catfish; experiment: Bioassay, brown bullhead catfish; type: in vivo, Ictalurus nebulosus; conditions: for mortality: 96 h, 140-185 mm; for mortality / time in which all bullhead catfish died: artesian well water, 10 C; for time in which all bullhead catfish died: fry 28-40 mm; for selectivity to bullhead catfish: in vivo
Procedure: Bioassays (10 fish per concentration) were made with brown bullhead catfish fry (28-40 mm) at concentrations of 0, 2, and 4 mg/l of 2, 2-dichlorovinyldiethyl phosphate in artesian well water (load, 0.5 g/l). All the Bullhead catfish died in 12 hours at 2 mg/l and in 6 hours at 4 mg/l of the chemical at 10 C.
A second series of bioassays (10 fish per concentration) was made with larger bullhead catfish (140-185 mm) at 0.6 and 1.0 mg/l concentrations of 2, 2-dichlorovinyl diethyl phosphate in artesian well water (load, 1.0 g/l) at 10 C. In 96 hours 50% mortality occurred at 0.6 mg/l and 100% mortality at 1.0 mg/l.

[4] = tested on: stickleback; experiment: Control of stickleback in 24-hour applications, usable concentration; type: in vivo; conditions: for recommended safe and effective concentration: river water tests
Excerpt: For field applications the concentration of the dichloro- and tetrachloro-compounds would vary with water quality--mainly with regard to water temperature and hydrogen ion concentrations. Generally, treated areas would contain water low in dissolved solids and a pH of 7 to 7.5. The activity of the chemicals would then be essentially similar to that determined in our tests using river water. For the treatment of rivers and shorelines of lakes the concentrations of the dichloro- and tetrachloro-compounds that would be used would be those that would kill stickleback or suckers in 12 to 24 hours. The information above, relating to Examples 1 and 12, substantiates improvement in fish culture by the addition of dichloroethyl or dichlorovinyl diethyl phosphate to an aqueous habitat at a concentration in water ranging between 0.1 and 10 mg/l. […] The information above, relating to Example 2, substantiates improvement in fish culture by the addition of tetrachloroethyl diethyl phosphate to an aqueous habitat at a concentration in water ranging between 4 and 80 μg/l.

Compound	effect on grayling [1]	deactivation by 1 equivalent weight of permanganate ([2]; 15 C)	effect of potassium permanganate on mortality ([2]; excessive concentrations of 2 Cl)	mortality ([3]; 0.6 mg/l) [%]	mortality ([3]; 1.0 mg/l) [%]	time in which all bullhead catfish died ([3]; 2 mg/l) [h]	time in which all bullhead catfish died ([3]; 4 mg/l) [h]	selectivity to bullhead catfish [3]	selectivity to bullhead catfish ([3]; listed as dichloro-compound)	recommended safe and effective concentration ([4]; 10 C) [mg/L]	recommended safe and effective concentration ([4]; 15 C) [mg/L]	concentrations for control (upper: greater than) ([4]; Kamloops, 10 C, 24 h or less, river water)
CCOP(=O)(OCC)OC(Cl)C(Cl)(Cl)Cl (stereo not drawn) [2,2,2,1-tetrachloroethyl diethyl phosphate]	not affected	–	–	–	–	–	–	–	–	–	–	–
CCOP(=O)(OC=C(Cl)Cl)OCC [2,2-dichlorovinyl diethyl phosphate]	–	about 25%	delayed mortality	50	100	12	6	specific for the carp and bullhead catfish	slightly more selective to bullhead than to stickleback	5	3	4-4 mg/l
